Assay results: ChEMBL document CHEMBL3046063, “Synthesis and antimicrobial activity of 5-chloroindoline-2,3-dione derivatives” (2012)
Converted amounts (≈) assume the structure as drawn.

Assays:
Assay type in all cases: functional
[1] = test system: Bacillus spizizenii; assay: Antimicrobial activity against Bacillus subtilis subsp. spizizenii ATCC 6633 after 24 hr by broth dilution method; conditions: ATCC 6633, 24 h
[2] = test system: Staphylococcus epidermidis; assay: Antimicrobial activity against Staphylococcus epidermidis ATCC 12228 after 24 hr by broth dilution method; conditions: ATCC 12228, 24 h
[3] = test system: Micrococcus luteus; assay: Antimicrobial activity against Micrococcus luteus ATCC 4698 after 24 hr by broth dilution method; conditions: ATCC 4698, 24 h
[4] = test system: Staphylococcus aureus; assay: Antimicrobial activity against Staphylococcus aureus ATCC 25923 after 24 hr by broth dilution method; conditions: ATCC 25923, 24 h
[5] = test system: Staphylococcus hominis; assay: Antimicrobial activity against Staphylococcus hominis ATCC 27844 after 24 hr by broth dilution method; conditions: ATCC 27844, 24 h
[6] = test system: Bacillus pumilus; assay: Antimicrobial activity against Bacillus pumilus ATCC 14884 after 24 hr by broth dilution method; conditions: ATCC 14884, 24 h
[7] = test system: Bacillus cereus; assay: Antimicrobial activity against Bacillus cereus ATCC 11778 after 24 hr by broth dilution method; conditions: ATCC 11778, 24 h
[8] = test system: Proteus vulgaris; assay: Antimicrobial activity against Proteus vulgaris ATCC 13315 after 24 hr by broth dilution method; conditions: ATCC 13315, 24 h
[9] = test system: Proteus mirabilis; assay: Antimicrobial activity against Proteus mirabilis ATCC 49565 after 24 hr by broth dilution method; conditions: ATCC 49565, 24 h
[10] = test system: Salmonella typhi; assay: Antimicrobial activity against Salmonella enterica subsp. enterica serovar Typhi ATCC 19430 after 24 hr by broth dilution method; conditions: ATCC 19430, 24 h
[11] = test system: Klebsiella pneumoniae; assay: Antimicrobial activity against Klebsiella pneumoniae ATCC 13883 after 24 hr by broth dilution method; conditions: ATCC 13883, 24 h
[12] = test system: Escherichia coli; assay: Antimicrobial activity against Escherichia coli ATCC 25922 after 24 hr by broth dilution method; conditions: ATCC 25922, 24 h
[13] = test system: Pseudomonas aeruginosa; assay: Antimicrobial activity against Pseudomonas aeruginosa ATCC 10145 after 24 hr by broth dilution method; conditions: ATCC 10145, 24 h
[14] = test system: Aspergillus niger; assay: Antimicrobial activity against Aspergillus niger ATCC 9142 after 24 hr by broth dilution method; conditions: ATCC 9142, 24 h
[15] = test system: Aspergillus awamori; assay: Antimicrobial activity against Aspergillus awamori ATCC 22342 after 24 hr by broth dilution method; conditions: ATCC 22342, 24 h
[16] = test system: Candida albicans; assay: Antimicrobial activity against Candida albicans ATCC 10231 after 24 hr by broth dilution method; conditions: ATCC 10231, 24 h
[17] = test system: Alternaria alternata; assay: Antimicrobial activity against Alternaria alternata ATCC 66868 after 24 hr by broth dilution method; conditions: ATCC 66868, 24 h
[18] = test system: Microsporum canis; assay: Antimicrobial activity against Arthroderma otae ATCC 11622 after 24 hr by broth dilution method; conditions: ATCC 11622, 24 h
[19] = test system: Rhizoctonia solani; assay: Antimicrobial activity against Rhizoctonia solani ATCC 76131 after 24 hr by broth dilution method; conditions: ATCC 76131, 24 h
[20] = test system: Trichophyton longifusum; assay: Antimicrobial activity against Trichophyton longifusum ATCC 22397 after 24 hr by broth dilution method; conditions: ATCC 22397, 24 h
[21] = test system: Fusarium solani; assay: Antimicrobial activity against Fusarium solani ATCC 38136 after 24 hr by broth dilution method; conditions: ATCC 38136, 24 h
[22] = test system: Trichoderma viride; assay: Antimicrobial activity against Hypocrea rufa ATCC 52440 after 24 hr by broth dilution method; conditions: ATCC 52440, 24 h
[23] = test system: Aspergillus flavus; assay: Antimicrobial activity against Aspergillus flavus ATCC 15517 after 24 hr by broth dilution method; conditions: ATCC 15517, 24 h
[24] = test system: Aspergillus fumigatus; assay: Antimicrobial activity against Aspergillus fumigatus after 24 hr by broth dilution method

O=C1Nc2ccc(Cl)cc2/C1=N/N1C(=O)CSC1c1ccco1 (stereo unspecified)
MIC [1]: 37.5 µg/mL (≈ 108 µM)
MIC [2]: 75 µg/mL (≈ 216 µM)
MIC [3]: 75 µg/mL (≈ 216 µM)
MIC [4]: 75 µg/mL (≈ 216 µM)
MIC [5]: 37.5 µg/mL (≈ 108 µM)
MIC [6]: 37.5 µg/mL (≈ 108 µM)
MIC [7]: 75 µg/mL (≈ 216 µM)
MIC [8]: 75 µg/mL (≈ 216 µM)
MIC [9]: 75 µg/mL (≈ 216 µM)
MIC [10]: 37.5 µg/mL (≈ 108 µM)
MIC [11]: 75 µg/mL (≈ 216 µM)
MIC [12]: 75 µg/mL (≈ 216 µM)
MIC [13]: 75 µg/mL (≈ 216 µM)
MIC [14]: 37.5 µg/mL (≈ 108 µM)
MIC [15]: 37.5 µg/mL (≈ 108 µM)
MIC [16]: 18.8 µg/mL (≈ 53.9 µM)
MIC [17]: 37.5 µg/mL (≈ 108 µM)
MIC [18]: 37.5 µg/mL (≈ 108 µM)
MIC [19]: 18.8 µg/mL (≈ 53.9 µM)
MIC [20]: 18.8 µg/mL (≈ 53.9 µM)
MIC [21]: 37.5 µg/mL (≈ 108 µM)
MIC [22]: 37.5 µg/mL (≈ 108 µM)
MIC [23]: 37.5 µg/mL (≈ 108 µM)
MIC [24]: 18.8 µg/mL (≈ 53.9 µM)

O=C1Nc2ccc(Cl)cc2/C1=N/N1C(=O)CSC1c1ccccc1Cl (stereo unspecified)
MIC [1]: 300 µg/mL (≈ 765 µM)
MIC [2]: 150 µg/mL (≈ 382 µM)
MIC [3]: 300 µg/mL (≈ 765 µM)
MIC [4]: 300 µg/mL (≈ 765 µM)
MIC [5]: 150 µg/mL (≈ 382 µM)
MIC [6]: 150 µg/mL (≈ 382 µM)
MIC [7]: 150 µg/mL (≈ 382 µM)
MIC [8]: 300 µg/mL (≈ 765 µM)
MIC [9]: 300 µg/mL (≈ 765 µM)
MIC [10]: 150 µg/mL (≈ 382 µM)
MIC [11]: 150 µg/mL (≈ 382 µM)
MIC [12]: 150 µg/mL (≈ 382 µM)
MIC [13]: 150 µg/mL (≈ 382 µM)
MIC [14]: 75 µg/mL (≈ 191 µM)
MIC [15]: 150 µg/mL (≈ 382 µM)
MIC [16]: 150 µg/mL (≈ 382 µM)
MIC [17]: 150 µg/mL (≈ 382 µM)
MIC [18]: 75 µg/mL (≈ 191 µM)
MIC [19]: 75 µg/mL (≈ 191 µM)
MIC [20]: 150 µg/mL (≈ 382 µM)
MIC [21]: 150 µg/mL (≈ 382 µM)
MIC [22]: 75 µg/mL (≈ 191 µM)
MIC [23]: 150 µg/mL (≈ 382 µM)
MIC [24]: 150 µg/mL (≈ 382 µM)

O=C1Nc2ccc(Cl)cc2/C1=N/N1C(=O)CSC1c1ccc(Cl)cc1 (stereo unspecified)
MIC [1]: 37.5 µg/mL (≈ 95.6 µM)
MIC [2]: 18.8 µg/mL (≈ 47.8 µM)
MIC [3]: 18.8 µg/mL (≈ 47.8 µM)
MIC [4]: 18.8 µg/mL (≈ 47.8 µM)
MIC [5]: 9.37 µg/mL (≈ 23.9 µM)
MIC [6]: 9.37 µg/mL (≈ 23.9 µM)
MIC [7]: 9.37 µg/mL (≈ 23.9 µM)
MIC [8]: 37.5 µg/mL (≈ 95.6 µM)
MIC [9]: 18.8 µg/mL (≈ 47.8 µM)
MIC [10]: 9.37 µg/mL (≈ 23.9 µM)
MIC [11]: 18.8 µg/mL (≈ 47.8 µM)
MIC [12]: 9.37 µg/mL (≈ 23.9 µM)
MIC [13]: 9.37 µg/mL (≈ 23.9 µM)
MIC [14]: 4.68 µg/mL (≈ 11.9 µM)
MIC [15]: 9.37 µg/mL (≈ 23.9 µM)
MIC [16]: 4.68 µg/mL (≈ 11.9 µM)
MIC [17]: 4.68 µg/mL (≈ 11.9 µM)
MIC [18]: 4.68 µg/mL (≈ 11.9 µM)
MIC [19]: 9.37 µg/mL (≈ 23.9 µM)
MIC [20]: 4.68 µg/mL (≈ 11.9 µM)
MIC [21]: 9.37 µg/mL (≈ 23.9 µM)
MIC [22]: 9.37 µg/mL (≈ 23.9 µM)
MIC [23]: 4.68 µg/mL (≈ 11.9 µM)
MIC [24]: 4.68 µg/mL (≈ 11.9 µM)

O=C1Nc2ccc(Cl)cc2/C1=N/N1C(=O)C(Cl)C1c1ccccc1O (stereo unspecified)
MIC [1]: 300 µg/mL (≈ 797 µM)
MIC [2]: 300 µg/mL (≈ 797 µM)
MIC [3]: 150 µg/mL (≈ 399 µM)
MIC [4]: 150 µg/mL (≈ 399 µM)
MIC [5]: 300 µg/mL (≈ 797 µM)
MIC [6]: 300 µg/mL (≈ 797 µM)
MIC [7]: 300 µg/mL (≈ 797 µM)
MIC [8]: 150 µg/mL (≈ 399 µM)
MIC [9]: 150 µg/mL (≈ 399 µM)
MIC [10]: 300 µg/mL (≈ 797 µM)
MIC [11]: 300 µg/mL (≈ 797 µM)
MIC [12]: 150 µg/mL (≈ 399 µM)
MIC [13]: 300 µg/mL (≈ 797 µM)
MIC [14]: 75 µg/mL (≈ 199 µM)
MIC [15]: 150 µg/mL (≈ 399 µM)
MIC [16]: 75 µg/mL (≈ 199 µM)
MIC [17]: 150 µg/mL (≈ 399 µM)
MIC [18]: 150 µg/mL (≈ 399 µM)
MIC [19]: 150 µg/mL (≈ 399 µM)
MIC [20]: 150 µg/mL (≈ 399 µM)
MIC [21]: 75 µg/mL (≈ 199 µM)
MIC [22]: 150 µg/mL (≈ 399 µM)
MIC [23]: 150 µg/mL (≈ 399 µM)
MIC [24]: 150 µg/mL (≈ 399 µM)

COc1ccc(C2SCC(=O)N2/N=C2\C(=O)Nc3ccc(Cl)cc32)cc1 (stereo unspecified)
MIC [1]: 9.37 µg/mL (≈ 24.2 µM)
MIC [2]: 9.37 µg/mL (≈ 24.2 µM)
MIC [3]: 18.8 µg/mL (≈ 48.3 µM)
MIC [4]: 18.8 µg/mL (≈ 48.3 µM)
MIC [5]: 18.8 µg/mL (≈ 48.3 µM)
MIC [6]: 18.8 µg/mL (≈ 48.3 µM)
MIC [7]: 18.8 µg/mL (≈ 48.3 µM)
MIC [8]: 37.5 µg/mL (≈ 96.7 µM)
MIC [9]: 9.37 µg/mL (≈ 24.2 µM)
MIC [10]: 9.37 µg/mL (≈ 24.2 µM)
MIC [11]: 9.37 µg/mL (≈ 24.2 µM)
MIC [12]: 18.8 µg/mL (≈ 48.3 µM)
MIC [13]: 18.8 µg/mL (≈ 48.3 µM)
MIC [14]: 4.68 µg/mL (≈ 12.1 µM)
MIC [15]: 4.68 µg/mL (≈ 12.1 µM)
MIC [16]: 4.68 µg/mL (≈ 12.1 µM)
MIC [17]: 9.37 µg/mL (≈ 24.2 µM)
MIC [18]: 9.37 µg/mL (≈ 24.2 µM)
MIC [19]: 9.37 µg/mL (≈ 24.2 µM)
MIC [20]: 4.68 µg/mL (≈ 12.1 µM)
MIC [21]: 4.68 µg/mL (≈ 12.1 µM)
MIC [22]: 4.68 µg/mL (≈ 12.1 µM)
MIC [23]: 9.37 µg/mL (≈ 24.2 µM)
MIC [24]: 4.68 µg/mL (≈ 12.1 µM)

Clc1ccccc1C(c1ccccc1)(c1ccccc1)n1ccnc1 [CLOTRIMAZOLE]
MIC [14]: 2.34 µg/mL (≈ 6.79 µM)
MIC [15]: 2.34 µg/mL (≈ 6.79 µM)
MIC [16]: 0.58 µg/mL (≈ 1.68 µM)
MIC [17]: 2.34 µg/mL (≈ 6.79 µM)
MIC [18]: 1.17 µg/mL (≈ 3.39 µM)
MIC [19]: 1.17 µg/mL (≈ 3.39 µM)
MIC [20]: 2.34 µg/mL (≈ 6.79 µM)
MIC [21]: 1.17 µg/mL (≈ 3.39 µM)
MIC [22]: 1.17 µg/mL (≈ 3.39 µM)
MIC [23]: 2.34 µg/mL (≈ 6.79 µM)
MIC [24]: 2.34 µg/mL (≈ 6.79 µM)
